# Laboratory results reported in US10125100B2, “Kinase inhibitors” (Respivert Limited, priority 2014, dated 2018).
# Key:
# Jurkat cells = experiment: (r) Cell cytotoxicity assay; format: cell-based, human; conditions: 24 hours
# In short: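 Jurkat cells (1×10^5/well, RPMI + 10% FBS) exposed to compound at 20, 5 or 1 μg/mL final (1.0% DMSO control) for 24 h at 37° C., 5% CO2. Then stained with 7.5 μg/mL propidium iodide for 15 min. % viability = PI-negative cells by flow cytometry, normalized to DMSO.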
# [1] = Solubility in fasted-state simulated colonic fluid (FaSSCoF); format: physicochemical; conditions: 24 h, pH 6.5
# Experimental: The solubilities of compounds of the invention in FaSSCoF at pH 6.5 are determined using a modification of a previously-reported procedure (Vertzoni, M., et al. Pharm. Res. 2010, 27, 2187-2196). In place of the bile salt extract employed in the original procedure (which extract is no longer available), the modified procedure uses a mixture of sodium taurochlorate (0.15 g), glycocholic acid (0.15 g), ursodeoxycholic acid (0.05 g), cholic acid (0.05 g), and glycodeoxycholic acid (0.05 g). These five bile acids are ground together with a mortar and pestle to produce a fine white powder that is incorporated into the FaSSCoF, as outlined below.
# Tris(hydroxymethyl)aminomethane (Tris; 0.275 g) and maleic acid (0.44 g) are dissolved in water (35 mL) to give a solution whose pH is adjusted to 6.5 by treatment with 0.5M NaOH (ca. 12 mL). The solution is then made up to 50 mL with water. A portion of this Tris/maleate buffer solution (ca. 25 mL) is added to a 0.5 L round-bottomed flask, before being treated with 0.00565 g of the bile acid mixture described above. Solutions of phosphatidylcholine (0.0111 g) in DCM (0.15 mL) and palmitic acid (0.0013 g) in DCM (0.15 mL) are added, then the organic solvent is evaporated off under reduced pressure at 40° C. until a clear solution, with no perceptible DCM odour, is achieved. The volume of the evaporated solution is adjusted to 50 mL by addition of the remainder of Tris/maleate buffer, then BSA (0.115 g) is added, before being dissolved by gentle agitation.
# Test compounds are suspended in the pH 6.5 FaSSCoF medium to give a maximum final concentration of 2-10 mg/mL. The suspensions are equilibrated at 25° C. for 24 h, before being filtered through a glass fibre C filter. The filtrates are then diluted as appropriate for injection and quantification by HPLC with reference to a standard. Different volumes of the standard, diluted and undiluted sample solutions are injected and the solubilities are calculated using the peak areas determined by integration of the peak found at the same retention time as the principal peak in the standard injection.
# [2] = tested on: Escherichia coli, WP2 uvrA; experiment: Bacterial reverse mutation screen
# [3] = Hydrolytic stability study; format: physicochemical; conditions: DMSO/water (3:1); for % Parent Remaining: 1 mg/mL
# Experimental: Chemical stability of compounds of the invention was assessed in a mixture of DMSO and water (3:1) at a test compound concentration of 1 mg/mL.
# General HPLC Procedure • Agilent, Waters X-Select C18, 2.5 μm, 4.6×30 mm column, 4 min method, 5-95% MeCN/water (0.1% formic acid). Flow rate 2.5 mL/min. Column Oven Temperature 40° C. Detection 254 nm.
# Sample Preparation • A 1.0 mg sample of test compound was dissolved in 750 μL of DMSO. Water (250 μL) was added slowly, ensuring no precipitation occurred.
# Recording Stability • A 50 μL aliquot of the test solution was removed and analysed in duplicate by 5 μL HPLC injections. The peak area for the test compound was recorded following manual integration of the corresponding UV trace. • The test solution was heated to 60° C., with stirring, and 50 μL aliquots removed for HPLC analysis at 5 and 24 h timepoints.
# B-Raf = B-Raf (Homo sapiens (Human), UniProt P15056); experiment: KINOMEscan binding of kinase to standard ligand; conditions: KINOMEscan technology
# Sequence of B-Raf (P15056 whole entry): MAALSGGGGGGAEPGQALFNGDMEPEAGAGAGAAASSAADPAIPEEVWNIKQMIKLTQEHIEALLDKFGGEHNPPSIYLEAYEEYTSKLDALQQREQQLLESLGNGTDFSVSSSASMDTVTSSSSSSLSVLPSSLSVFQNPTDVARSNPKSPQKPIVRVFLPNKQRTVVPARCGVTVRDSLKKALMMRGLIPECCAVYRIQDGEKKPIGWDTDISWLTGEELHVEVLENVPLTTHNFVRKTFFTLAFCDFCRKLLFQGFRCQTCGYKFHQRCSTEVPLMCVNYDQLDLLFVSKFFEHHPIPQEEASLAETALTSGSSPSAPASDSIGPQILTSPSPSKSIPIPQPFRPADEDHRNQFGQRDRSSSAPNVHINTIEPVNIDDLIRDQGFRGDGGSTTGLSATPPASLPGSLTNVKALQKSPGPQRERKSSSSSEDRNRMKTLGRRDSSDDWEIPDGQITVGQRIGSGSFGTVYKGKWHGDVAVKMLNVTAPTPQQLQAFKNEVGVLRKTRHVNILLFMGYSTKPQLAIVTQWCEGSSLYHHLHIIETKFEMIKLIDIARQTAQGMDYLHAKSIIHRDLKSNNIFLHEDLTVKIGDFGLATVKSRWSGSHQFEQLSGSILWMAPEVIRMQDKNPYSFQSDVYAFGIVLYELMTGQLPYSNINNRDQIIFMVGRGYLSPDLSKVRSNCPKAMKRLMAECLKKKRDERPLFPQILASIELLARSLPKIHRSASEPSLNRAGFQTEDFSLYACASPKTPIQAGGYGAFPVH
# Excerpt: (§1) These assays may be conducted by DiscoverX (formerly Ambit; San Diego, Calif.).
# B-Raf (V600E) = B-Raf (V600E) (Homo sapiens (Human), UniProt P15056, V600E); experiment: KINOMEscan binding of kinase to standard ligand; conditions: KINOMEscan technology
# Sequence of B-Raf (V600E) (P15056 whole entry V600E): as the sequence (P15056 whole entry) above, with V600E counted along it
# Excerpt: as §1
# c-Src = c-Src (Homo sapiens (Human), UniProt P12931); experiment: c-Src enzyme inhibition, Z-LYTE FRET; format: biochemical
# Sequence of c-Src (P12931 whole entry, looked up): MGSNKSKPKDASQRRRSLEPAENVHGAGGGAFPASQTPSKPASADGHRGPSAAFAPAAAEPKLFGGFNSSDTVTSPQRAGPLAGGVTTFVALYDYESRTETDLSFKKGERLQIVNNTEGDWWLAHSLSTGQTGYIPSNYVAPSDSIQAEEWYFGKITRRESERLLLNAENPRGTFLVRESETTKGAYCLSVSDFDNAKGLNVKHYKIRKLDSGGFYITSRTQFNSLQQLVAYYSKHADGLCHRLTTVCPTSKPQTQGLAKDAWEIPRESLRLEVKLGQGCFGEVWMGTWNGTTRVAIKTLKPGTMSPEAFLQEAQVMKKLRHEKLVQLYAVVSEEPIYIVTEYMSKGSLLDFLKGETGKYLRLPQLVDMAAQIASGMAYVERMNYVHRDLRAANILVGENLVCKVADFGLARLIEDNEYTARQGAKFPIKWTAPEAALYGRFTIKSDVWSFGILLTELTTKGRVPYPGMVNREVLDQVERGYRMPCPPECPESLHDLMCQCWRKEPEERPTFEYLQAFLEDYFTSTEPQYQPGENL
# In short: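 Human Syk and c-Src (enzyme at 2000 or 3000 ng/mL respectively, pre-dilution) preincubated 2 hr at RT with compound at 1, 0.1, 0.01 or 0.001 μg/mL; FRET peptide added with ATP (60 μM Syk, 800 μM c-Src; solution concentrations), 1 hr. Protease development 1 hr; phosphorylation from coumarin/fluorescein emission ratio.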
# [4] = tested on: Salmonella typhimurium, strains TA1535, TA1537, TA98 and TA100; experiment: Bacterial reverse mutation screen
# Syk = Syk (Homo sapiens (Human), UniProt P43405); experiment: Syk enzyme inhibition, Z-LYTE FRET; format: biochemical
# In short: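 Syk or c-Src enzyme (3000 or 2000 ng/mL solutions) was preincubated 2 h at RT with compound solutions at 1, 0.1, 0.01 or 0.001 µg/mL. Z-LYTE FRET peptide (8 µM solution) and ATP (800 µM solution for c-Src, 60 µM for Syk) were then added for 1 h, followed by protease development for 1 h. Phosphorylation was read as the coumarin/fluorescein emission ratio.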
# p38 MAPKα (MAPK14) = p38 MAPKα (MAPK14) (Homo sapiens (Human), UniProt Q16539); experiment: p38 MAPKα enzyme inhibition (Method 2), Z-LYTE FRET; format: biochemical
# Sequence of p38 MAPKα (MAPK14) (Q16539 whole entry): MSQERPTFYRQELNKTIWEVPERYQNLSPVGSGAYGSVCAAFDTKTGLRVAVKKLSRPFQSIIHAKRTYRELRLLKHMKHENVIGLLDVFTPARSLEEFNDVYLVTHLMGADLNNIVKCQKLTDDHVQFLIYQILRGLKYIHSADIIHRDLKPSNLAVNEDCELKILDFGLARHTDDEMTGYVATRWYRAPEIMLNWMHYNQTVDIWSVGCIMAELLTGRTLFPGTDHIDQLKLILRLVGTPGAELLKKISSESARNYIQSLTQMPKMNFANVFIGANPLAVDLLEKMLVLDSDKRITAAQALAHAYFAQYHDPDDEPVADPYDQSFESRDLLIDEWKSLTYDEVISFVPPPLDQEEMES
# In short: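 Enzyme (200 ng/mL solution) was preincubated 2 h at RT with compound solutions of 1, 0.1, 0.01 or 0.001 μg/mL, and inhibition was read indirectly via MAPKAP-K2 activation/phosphorylation. After a 1 h RT reaction and 1 h protease development, phosphorylation was derived from the coumarin/fluorescein emission ratio.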
# non-mutant kinases = experiment: KinomeScan selectivity scores; format: binding; conditions: for number of individual kinase hits S(1): % Ctrl <1; for number of individual kinase hits S(10): % Ctrl <10; for number of individual kinase hits S(35): % Ctrl <35; for KinomeScan Selectivity Score S(10): non-mutant kinases with % Ctrl <10 / kinases tested; for KinomeScan Selectivity Score S(35): non-mutant kinases with % Ctrl <35 / kinases tested
# Excerpt: as §1
# [5] = plate incorporation, presence and absence of S-9 mix
"pH 6.5 FaSSCoF Solubility, Run 2 [1]",Compound,% Viability at 1 μg/mL (Jurkat cells),% Viability at 5 μg/mL (Jurkat cells),% Viability at 20 μg/mL (Jurkat cells),% Parent Remaining ([3]; 0 min),effect on the binding of B-Raf to its standard ligand (B-Raf),effect on the binding of B-Raf (V600E) to its standard ligand (B-Raf (V600E)),IC50 (c-Src),IC50 (Syk),IC50 (p38 MAPKα (MAPK14)),further results
0.049 mg/mL,"COc1cc(Nc2nccc(Oc3ccc(NC(=O)Nc4cc(C(C)(C)C)cc(NS(C)(=O)=O)c4OC)c4ccccc34)n2)ccc1C(=O)NCCC1CCN(C)CC1 [17(an), 4-((4-((4-(3-(5-(tert-butyl)-2-methoxy-3-(methylsulfonamido)phenyl)ureido)naphthalen-1-yl)oxy)pyrimidin-2-yl)amino)-2-methoxy-N-(2-(1-methylpiperidin-4-yl)ethyl)benzamide]",97.9%,37.9%,1.1%,,,,,,,
0.024 mg/mL,"COc1cc(Nc2cc(Oc3ccc(NC(=O)Nc4cc(NS(C)(=O)=O)cc(C(C)(C)C)c4)c4ccccc34)ccn2)ccc1C(=O)NCCCN1CCN(C)CC1 [17(bp), 4-((4-((4-(3-(3-(tert-Butyl)-5-(methylsulfonamido)phenyl)ureido)naphthalen-1-yl)oxy)pyridin-2-yl)amino)-2-methoxy-N-(3-(4-methylpiperazin-1-yl)propyl)benzamide]",93.2%,41.0%,2.0%,,,,,,,
0.024 mg/mL,"COc1cc(Nc2cc(Oc3ccc(NC(=O)Nc4cc(C(C)(C)C)cc(NS(C)(=O)=O)c4OC)c4ccccc34)ccn2)cc(OC)c1C(=O)NCCN1CCN(CCO)CC1 [Example 37, 4-((4-((4-(3-(5-(tert-Butyl)-2-methoxy-3-(methylsulfonamido)phenyl)ureido)naphthalen-1-yl)oxy)pyridin-2-yl)amino)-N-(2-(4-(2-hydroxyethyl)piperazin-1-yl)ethyl)-2,6-dimethoxybenzamide]",52.9%,55.8%,28.9%,,,,,,,

# The next lines start with the compound.
Compound,"pH 6.5 FaSSCoF Solubility, Run 2 [1]",% Viability at 1 μg/mL (Jurkat cells),% Viability at 5 μg/mL (Jurkat cells),% Viability at 20 μg/mL (Jurkat cells),% Parent Remaining ([3]; 0 min),effect on the binding of B-Raf to its standard ligand (B-Raf),effect on the binding of B-Raf (V600E) to its standard ligand (B-Raf (V600E)),IC50 (c-Src),IC50 (Syk),IC50 (p38 MAPKα (MAPK14)),further results
"COc1cc(Nc2cc(Oc3ccc(NC(=O)Nc4cc(C(C)(C)C)cc(NS(C)(=O)=O)c4OC)c4ccccc34)ccn2)ccc1P(C)(=O)O [Example 44, (4-((4-((4-(3-(5-(tert-Butyl)-2-methoxy-3-(methylsulfonamido)phenyl)ureido)naphthalen-1-yl)oxy)pyridin-2-yl)amino)-2-methoxyphenyl)(methyl)phosphinic acid]",,93.3%,90.1%,92.2%,100%,did not have any significant effect,did not have any significant effect,0.02 µM,0.017 µM,0.011 µM,"toxicity of the test item to the bacteria (mean colony count) ([2]; 5000 μg/plate in WP2 uvrA, absence of S-9 mix): reduction in the mean colony count; mutagenic effects (revertant numbers) [2, 5]: absence of any mutagenic effects; % Parent Remaining ([3]; 60° C., 1439 min): 98%; toxicity of the test item to the bacteria (mean colony count) ([4]; at the highest doses (500-5000 μg/plate) in some strains): reduction in the mean colony count; mutagenic effects (revertant numbers) [4, 5]: absence of any mutagenic effects"
"COc1cc(Nc2cc(Oc3ccc(NC(=O)Nc4cc(C(C)(C)C)cc(NS(C)(=O)=O)c4OC)c4ccccc34)ccn2)cc(OC)c1C(=O)NCCOCCOCCOP(=O)(O)O [Example 47, 2-(2-(2-(4-((4-((4-(3-(5-(tert-butyl)-2-methoxy-3-(methylsulfonamido)phenyl)ureido)-naphthalen-1-yl)oxy)pyridin-2-yl)amino)-2,6-dimethoxybenzamido)ethoxy)ethoxy)ethyl dihydrogen phosphate]",,91.2%,96.0%,97.8%,100%,did not have any significant effect,did not have any significant effect,0.015 µM,0.008 µM,0.004 µM,"number of individual kinase hits S(1) (non-mutant kinases; 50 nM): 0; number of individual kinase hits S(10) (non-mutant kinases; 50 nM): 17; number of individual kinase hits S(35) (non-mutant kinases; 50 nM): 55; KinomeScan Selectivity Score S(10) (non-mutant kinases; 50 nM): 0.042; KinomeScan Selectivity Score S(35) (non-mutant kinases; 50 nM): 0.136; number of individual kinase hits S(1) (non-mutant kinases; 500 nM): 30; number of individual kinase hits S(10) (non-mutant kinases; 500 nM): 90; number of individual kinase hits S(35) (non-mutant kinases; 500 nM): 128; KinomeScan Selectivity Score S(1) (non-mutant kinases; 500 nM, non-mutant kinases with % Ctrl <1 / kinases tested): 0.074; KinomeScan Selectivity Score S(10) (non-mutant kinases; 500 nM): 0.223; KinomeScan Selectivity Score S(35) (non-mutant kinases; 500 nM): 0.318; % Parent Remaining ([3]; 60° C., 317 min): 104%; % Parent Remaining ([3]; 60° C., 1450 min): 89%"
"C#Cc1cc(Nc2nccc(Oc3ccc(NC(=O)Nc4cc(C(C)C)nn4-c4ccc(C)cc4)c4ccccc34)n2)cc(C(=O)NCCN2CCOCC2)c1 [Reference Compound B, 3-ethynyl-5-((4-((4-(3-(3-isopropyl-1-(p-tolyl)-1H-pyrazol-5-yl)ureido)naphthalen-1-yl)oxy)pyrimidin-2-yl)amino)-N-(2-morpholinoethyl)benzamide, reference compound]",,,,,100%,,,,,,"% Parent Remaining ([3]; 60° C., 297 min): 79%; % Parent Remaining ([3]; 60° C., 1429 min): 18%; decomposition under the conditions of the experiment ([3]; 60° C.): substantial decomposition"
